“Also recorded” adds a separate entry of the source. Positions of bridges follow the written chain, without caps; N, C: chain ends. Non-standard residues stand in square brackets, D forms with d. Residues, ends and D or L forms follow the SMILES beside them. hArg = N=C(N)NCCCC[C@H](N)C(=O)O; Mpa = O=C(O)CCS
B1: sCD40L: soluble CD40 ligand; recombinant human sCD40 Ligand (protein, UniProt P29965 113-261, looked up)
CD40 ligand, soluble form: MQKGDQNPQIAAHVISEASSKTTSVLQWAEKGYYTMSNNLVTLENGKQLTVKRQGLYYIYAQVTFCSNREASSQAPFIASLCLKSPGRFERILLRAANTHSSAKPCGQQSIHLGGVFELQPGASVFVNVTDPSQVSHGTGFTSFGLLKL
modifications: CD40 ligand, soluble form
B2: hu5C8: humanized monoclonal IgG1 antibody against CD40L, alternatively named anti-sCD40L or anti-CD154 (antibody, chains of the INN, looked up, V domains shown)
VH: QVQLVQSGAEVVKPGASVKLSCKASGYIFTSYYMYWVKQAPGQGLEWIGEINPSNGDTNFNEKFKSKATLTVDKSASTAYMELSSLRSEDTAVYYCTRSDGRNDMDSWGQGTLVTVSS
VL: DIVLTQSPATLSVSPGERATISCRASQRVSSSTYSYMHWYQQKPGQPPKLLIKYASNLESGVPARFSGSGSGTDFTLTISSVEPEDFATYYCQHSWEIPPTFGGGTKLEIK

Columns and labels:
[1] = test system: human whole blood on HUVEC endothelium; assay: Vessel-On-Chip thrombosis, all endpoints together (platelet coverage, fibrin deposition, TAT); type: cell-based; conditions: adding Eptifibatide; n=4 donors
[2] = test system: platelets in human whole blood on HUVEC endothelium; assay: Vessel-On-Chip blood perfusion, platelet coverage by fluorescence imaging; type: cell-based; conditions: for areas of platelet coverage (platelet aggregation on the endothelium): endothelial pre-treatment TNF-α 50 ng/ml 6 hours, or sCollagen 10 μg/ml in blood; for platelet aggregate formation compared to untreated blood: hu5C8 240 μg/mL, sCD40L 10 ng/ml, 4 donors, 60 μl/minute
Method: Platelets: Platelets were labeled with human CD41-PE antibody (10 μL/ml, Invitrogen) directly added to the blood and incubated at room temperature for 5 minutes.
(§1) Adding Blood to a Vessel-On-Chip And Flow Conditions: A medical grade plastic reservoir was mounted on the chip, then 800 μl of the blood sample was pipetted into the reservoir. The chip was perfused with the blood by withdrawing it at a rate of 60 μl/minute using a syringe pump. The citrated blood was re-calcified 2 minutes after the beginning of each experiment by adding 100 μl/ml of a solution containing 100 mM calcium chloride and 75 mM magnesium chloride to the blood to permit calcium- and magnesium -dependent platelet function and coagulation.
(§2) Fluorescence Image Analysis: Chips perfused with blood samples were immediately imaged via fluorescence microscopy (Olympus IX83, 10× objective UPLFLN10X2 , Orca-Flash4.0 CMOS Camera). Each chamber was inspected along its entire length and 5 images (about 0.25 cm) were captured from the central area of the chamber. Image processing and quantification was performed with an automatic macro compiled in ImageJ and numerical values corresponding to platelet coverage or fibrin florescence were collected and statistically analyzed in Graphpad Prism V7.
Platelet Coverage: A percentage of signal coverage (or Platelet coverage) was computed from the binary image as the ratio of bright pixels to the total number of pixels in the image. Image processing and quantification was performed with an automatic macro compiled in ImageJ in order to ensure unbiased signal measurements. Numerical values corresponding to platelet coverage or fibrin fluorescence (signal intensity) were collected and statistically analyzed in Graphpad Prism V7.

[3] = test system: fibrin deposition on HUVEC endothelium; assay: Vessel-On-Chip blood perfusion, fibrin deposition by fluorescence imaging; type: cell-based, human; conditions: for fibrin signal intensity (fibrin deposition on the endothelium): endothelial pre-treatment TNF-α 50 ng/ml 6 hours, or sCollagen 10 μg/ml in blood; for fibrin deposition on the endothelium compared to untreated blood: hu5C8 240 μg/mL, sCD40L 10 ng/ml, 4 donors, 60 μl/minute
Method: as §1
Visualizing Fibrin Deposition: When analyzing the formation of fibrin, 10 μg/ml of fluorescently labeled fibrinogen (Alexa 488, Invitrogen) was also added to the blood. While fluorescent fibrinogen was barely detected as a diffused fluorescence, fibrin deposition on inflamed cells and sparse clots was easily distinguished since fibrin formed filamentous structures produce a signal intensity that is clearly observed above a background threshold.
as §2

[4] = test system: blood clots on endothelium; assay: Imaging of blood clots formed on-chip (SEM, micrographs, 3D movie); type: cell-based, human; conditions: after blood perfusion
Method: Scanning Electron Microscopy Sample Pre-treatment and Imaging: Immediately after fluorescence imaging, the chips were fixed in 2.5% glutaraldehyde in 100 mM sodium cacodylate buffer for 2 hours at room temperature. Then, the samples were washed and post fixed in 1% osmium tetroxide for 1 hour at room temperature. After the postfixation, the samples were dehydrated in series dilutions of ethanol and finally completely dried in a Critical point dryer (Tousimus Autosamsri-815). After mounting, the samples were gold sputtered using a Sputter coating system (Hummer 6.2) and imaged by SEM (Jeol 5600LV).

[5] = test system: thrombin anti-thrombin complex (TAT); assay: Thrombin-Anti Thrombin (TAT) ELISA in chip effluent; type: cell-based, human; conditions: FIG. 22B; plasma from blood flowing out of the chip
Method: Thrombin-Anti Thrombin (TAT) Measurement via ELISA: Thrombin Anti-Thrombin (TAT) levels were analyzed in plasma from blood flowing out of the chip device by removing a sample from the outflow port. Thus TAT levels were evaluated in sample effluents collected from the outflow port of the chip using the Human TAT ELISA Kit (Siemens Healthineers) according to the user manual.

[6] = Eptifibatide 2 ug/ml, endothelium inflamed with TNF-α, n=4
[7] = Eptifibatide 2 ug/ml, following treatment with sCollagen, n=4

Row | Molecule | areas of platelet coverage (platelet aggregation on the endothelium) [2] | structure of blood clots formed on-chip [4] | levels of TAT in outflow samples [5] | fibrin signal intensity (fibrin deposition on the endothelium) [3] | platelet aggregate formation compared to untreated blood [2] | fibrin deposition on the endothelium compared to untreated blood [3] | also measured
1 | N=C(N)NCCCC[C@@H]1NC(=O)CCSSC[C@@H](C(N)=O)NC(=O)[C@@H]2CCCN2C(=O)[C@H](Cc2c[nH]c3ccccc23)NC(=O)[C@H](CC(=O)O)NC(=O)CNC1=O [Eptifibatide] ([Mpa][hArg]GDWPC-NH2; disulfide 1-7) |  |  |  |  |  |  | pro-thrombotic effects (platelet coverage, fibrin deposition) of TNF-α and sCollagen / thrombotic events [1]: suppressed; also recorded: inhibited; platelet aggregation [2, 6]: significantly inhibited; inhibitory effect on platelet aggregation [2, 7]: comparatively modest; platelet adhesion (image analysis of multiple experiments) ([2]; Eptifibatide 2 ug/ml, n=4): completely inhibited; fibrin clot formation [3, 6]: significantly inhibited; inhibitory effect on fibrin clot formation [3, 7]: comparatively modest; fibrin signal (image analysis of multiple experiments) ([3]; Eptifibatide 2 ug/ml, samples treated with TNF-α): significant amount of fibrin signal was still detectable
2 | TNF-α | increased | compact clots composed of red blood cells and platelets, surrounded by fibrin; also recorded: high number of larger aggregates containing a platelet rich core decorated with fibrin | significantly increased; also recorded: elevated levels | increased |  |  | 
3 | sCollagen: soluble collagen (Soluble Calf Skin, Type I), a standard platelet activator | increased | meshwork of complex fibrin-rich clots that incorporated red blood cells and platelets; also recorded: high number of larger aggregates containing a platelet rich core decorated with fibrin | minimally increased; also recorded: elevated levels | increased |  |  | 
4 | B1 |  |  |  |  | no significant treatment-related effects | no significant treatment-related effects | platelet coverage, fold-increase over untreated control ([2]; in some donors, sCD40L alone): about 2 fold; mean increase in platelet coverage compared to controls ([2]; sCD40L alone, up to 15 donors): not statistically significant
5 | B2 |  |  |  |  | no significant treatment-related effects | no significant treatment-related effects | 

From patent publication US10228381B2, “Additive channels” (Emulate Inc., priority 2016, dated 2019)
